Reference: patent US9622472B2, “Molecules that induce disease resistance in plants” (The Regents of the University of California, priority 2013, dated 2017)

How the values were obtained:
[1] = system: virulent Peronospora isolate Noco2; experiment: Noco2 spore inhibition assay in soil-grown Col-0 seedlings; assay type: in vivo, Hyaloperonospora arabidopsidis (Peronospora)
Description: FIG. 1. Phenyl-imino-methyl-phenol derivatives (PMPs) constitute a large class of new synthetic elicitors. A: Structures of 20 PMP derivatives that were identified by high throughput screening as able to promote expression with the CaBP22 reporter assay. B. CMP199 was further analyzed in the Noco2 spore inhibition assay. Three-week-old soil-grown Col-0 seedlings were spray-infected 24 h after treating with varying concentrations of each synthetic elicitor and then assayed at 7 dpi for spore growth. 100% inhibition=0 spores. The assay was repeated three times with similar results, and the average of those three replicates is shown. DCA=3-5-dicholoroanthranlilic acid; HTC=2-(5-bromo-2-hydroxy-phenyl)-thiazolidine-4-carboxylic acid.
CMP199 (FIG. 1A) was selected for further study to determine whether CMP199 could induce pathogen resistance in soil-grown plants. […] To determine if CMP199 differs from other synthetic elicitors, Col-0 seedlings were treated with DCA or HTC at the indicated concentrations and compared.

[2] = system: pathogen-responsive CaBP22^−333::GUS reporter gene; conditions: transgenic Arabidopsis; reported in Knoth et al. (2009); cited from earlier work
Pseudomonas syringae = conditions: Arabidopsis; Knoth et al. (2009); cited from earlier work
[3] = system: Hyaloperonospora arabidopsidis (Peronospora); conditions: Arabidopsis; Knoth et al. (2009); cited from earlier work

Compound | induction of disease resistance ([1]; A. thaliana) | inhibition of Noco2 spores, concentration compared with other synthetic elicitors ([1]; Col-0 seedlings, spray-infected 24 h after treating, assayed at 7 dpi, FIG. 1B) | concentration giving significantly reduced numbers of Noco2 spores ([1]; Col-0 sprayed prior to infection, spores 7 days post infection) | induction of pCaBP22^−333::GUS reporter gene [2] | disease resistance triggered (Pseudomonas syringae) | disease resistance triggered [3]
COc1cccc(N=Cc2cc(Cl)cc(Cl)c2O)c1 [CMP199, 2,4-dichloro-6-[((3-methoxy-phenyl)imino)methyl]-phenol] | able to induce disease resistance in A. thaliana at very low concentration | much lower concentration than DCA or HTC | ≤ 1 µM | – | – | –
Nc1c(Cl)cc(Cl)cc1C(=O)O [DCA, 3-5-dicholoroanthranlilic acid] | – | – | – | induce | fast, strong and transient disease resistance | fast, strong and transient disease resistance
